Source: patent US12144850B2, “Methods and compositions for car T cell therapy” (PURDUE RESEARCH FOUNDATION, priority 2016, dated 2024)

Tests used:
[1] = test system: LNCaP (PSMA+) cells; assay: Cytotoxicity assay of CAR T cells in vitro (LDH release), LNCaP; assay type: cell-based; conditions: LNCaP (PSMA+) model, E:T 10:1, 100 nM conjugate; FIG. 3B
Description: (§1) In order to test cytotoxicity of CAR T cells with desired FITC-ligands, a standard lactate dehydrogenase (LDH) release assay was performed using a Pierce™ LDH cytotoxicity assay kit from ThermoFisher Scientific. To prepare samples for the LDH assay, cancer cells were seeded at a density of 10^4 cells/100 μL of media in each well of a 96 well plate and grown overnight. CAR T cells were prepared the next day at various numbers to have different effector (CAR T cell):target cell (cancer cell) ratios (e.g. E:T=20:1, 10:1, 5:1 and 1:1). FITC-ligands at various concentrations were introduced into each well and co-cultured for 6-24 hours. After co-incubation, the plate containing CAR T cells and cancer cells was centrifuged at 350×g at room temperature for 10 min to remove cell debris or remaining cells. 50 μL of the supernatants of each sample were then transferred into a new 96 well plate. 50 μL of the prepared LDH reaction mixture was added to the transferred 50 μL of each sample and incubated at room temperature for 30 min. 50 μL of stop solution was added and the absorbance of each sample was measured at 490 nm and 680 nm. The percent of cytotoxicity was calculated for each sample by using the equation below: % Cytotoxicity=(Experimental value−effector cells spontaneous−target cells spontaneous)/(Target cell maximum control−target cell spontaneous control)×100

[2] = test system: KB (FR+) cells; assay: Cytotoxicity assay of CAR T cells in vitro (LDH release), KB; assay type: cell-based; conditions: KB (FR+) model, 100 nM conjugate; FIG. 3D
Description: as §1

[3] = test system: HEK293 (NK1R+) cells; assay: Cytotoxicity assay of CAR T cells in vitro (LDH release), HEK293; assay type: cell-based; conditions: HEK293 (NK1R+) model, E:T 10:1, 100 nM conjugate; FIG. 3C
Description: as §1

[4] = test system: HEK(NK1R+); assay: Two tumors on separate flanks of the same mouse, HEK tumor; assay type: in vivo, mice
Excerpt: (§2) In order to study whether same anti-FITC CAR T cell can eradicate mixture of heterogeneous cancer cells with cocktail of FITC-ligands, immunodeficient NSG mice (Jackson laboratory) were utilized for the in vivo study. Two different cancer cell lines (e.g. MDA-MB-231(FR+) and HEK(NK1R+)) were implanted into separate flanks on the same mouse. Then, anti-FITC CAR T cell (10^7 cells) was introduced by intravenous injection when tumor volumes reached about 50-100 mm^3. In addition, either a mixture of FITC-ligands (i.e. FITC-PEG12-Folate (500 nmole/kg) and FITC-PEG11-NK1R (500 nmole/kg)), single FITC-PEG11-NK-1R (500 nmole/kg) or PBS was introduced every other day by intravenous injection. The anti-tumor efficacy of CAR T cell with FITC-ligands was analyzed by measuring tumor volume at every other day.

[5] = test system: MDA-MB-231(FR+); assay: Two tumors on separate flanks of the same mouse, MDA-MB-231 tumor; assay type: in vivo, mice
Excerpt: as §2

[6] = test system: MDA-MB-231 (FR+) cells; assay: Anti-tumor efficacy of CAR T cells in vivo, MDA-MB-231 (FR+) xenograft; set-up: species or system mice; conditions: during treatment, FIG. 7B
Description: (§3) Immunodeficient NSG mice (Jackson Laboratory) were used to identify the efficacy of CAR T cell anti-tumor activity in vivo. Each tumor-specific antigen expressing cancer cell line was subcutaneously injected into the shoulder of NSG mice to establish solid tumor xenografts. When tumor volume of around 50-100 mm^3 was reached, CAR T cells were introduced into mice bearing tumors and desired FITC-ligands were also introduced (i.v.) every other day. Control mice were administered PBS instead of FITC-ligands. Tumor volume and cytokine levels in the blood (IL2, IL6, IL10, IFNγ, and TNFα) were measured. General toxicity of the therapy was monitored by measuring weight loss. At the end of each treatment, mouse blood was collected to test for anemia, number of white blood cells and CAR T cell proliferation. Mouse organs were also evaluated.

[7] = test system: HEK293 (NK1R+) cells; assay: Anti-tumor efficacy of CAR T cells in vivo, HEK293 (NK1R+) xenograft; set-up: species or system mice
Description: as §3

[8] = anti-FITC CAR T cell (10^7 cells) + both FITC-PEG11-NK1R and FITC-PEG12-Folate, 500 nmole/kg each, i.v. every other day, FIG. 19C
[9] = anti-FITC CAR T cell (10^7 cells) + only FITC-PEG11-NK1R 500 nmole/kg i.v. every other day, FIG. 19B

SMILES | cytotoxicity of CAR T cells (activation) [1] | CAR T cell cytotoxicity to tumor cells as a function of E:T ratio [2] | cytotoxicity of CAR T cells (activation) [3] | HEK (NK1R) tumor volume [4, 8] | HEK (NK1R) tumor volume [4, 9] | MDA-MB-231 tumor volume [5, 8] | MDA-MB-231 tumor volume [5, 9] | body weight [6] | blood indices (cytokine storm) ([7]; HEK-NK1R model, 500 nmoles/kg, FIG. 9) | tumor size ([7]; NSG mice, CAR T cells + conjugate 500 nmol/kg i.v. every other day, FIG. 5A) | body weight ([7]; NSG mice, CAR T cells + conjugate, FIG. 5B) | harvested organs, indications of cytokine release syndrome ([7]; after two weeks of therapy, versus control group, FIGS. 6A-B) | percentage of CAR T cells in human T cells ([7]; post CAR T cell injection along with conjugate, FIG. 5C)
O=C(O)CC[C@H](NC(=O)N[C@@H](CCC(=O)NCCCCCCCC(=O)N[C@@H](Cc1ccccc1)C(=O)N[C@@H](Cc1ccccc1)C(=O)NCCNC(=S)Nc1ccc(-c2c3ccc(=O)cc-3oc3cc(O)ccc23)c(C(=O)O)c1)C(=O)O)C(=O)O [FITC-DUPA] | greater activation than using FITC-Folate or in the absence of a conjugate | a function of the E:T ratio | – | – | – | – | – | – | – | – | – | – | –
O=C(CN1CCC[C@H](OCc2cc(C(F)(F)F)cc(C(F)(F)F)c2)[C@@H]1c1ccccc1)NCCOCCOCCOCCOCCOCCOCCOCCOCCOCCOCCOCCNC(=S)Nc1ccc(-c2c3ccc(=O)cc-3oc3cc(O)ccc23)c(C(=O)O)c1 [FITC-PEG11-NK1] | – | – | greater than activation using FITC-Folate or in the absence of a conjugate | eliminated | eradicated | eliminated | continued growing | unchanged during treatment | a cytokine storm had not occurred | decreased | unchanged relative to the control mouse | appeared normal in size with no indications of cytokine release syndrome | increased
